Data on seven compounds can be found in PubChem BioAssay (NCI).

Molecules are shown by their SMILES.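 Five concentrations, 48 hours, 96-well plates. Abbreviation: GI50, concentration required for 50% inhibition of growth. TGI is the concentration that stops growth completely.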

Some test systems named below: LXFL 529 NSCLC; DLD-1 colon; SNB-78 CNS; HOP-18 NSCLC; KM20L2 colon; DMS 114 small cell lung; M19-MEL melanoma; XF 498 CNS; RXF-631 renal.
Holding throughout (assay): NCI tumour cell line growth inhibition, 48 h

Turning to `CCOC(=O)C1CCn2c(nc3c2c(=O)n(C)c(=O)n3C)S1` (stereo unspecified), the TGI with LXFL 529 NSCLC, with DLD-1 colon, in the test with SNB-78 CNS, in the test with HOP-18 NSCLC and in the test on KM20L2 colon was more than 100 µM in each case.
Regarding `C/C(=N\NC(=O)c1cccnc1)c1cccc(/C(C)=N/NC(=O)c2cccnc2)n1`, the GI50 in the test with LXFL 529 NSCLC is 2470 nM; in the test on DMS 114 small cell lung, 2700 nM; with SNB-78 CNS it was 7.53 µM; in the test on HOP-18 NSCLC it was 1060 nM. In addition, the TGI is more than 100 µM in the test on LXFL 529 NSCLC; 15.9 µM with DMS 114 small cell lung; 68.6 µM in the test on M19-MEL melanoma; more than 100 µM in the test on DLD-1 colon; 97.9 µM in the test on SNB-78 CNS; 6.15 µM in the test with HOP-18 NSCLC. For the same compound, the TGI in the test on KM20L2 colon was more than 100 µM.
For the compound `CC(Sc1ccccc1)C(CO)(CO)[N+](=O)[O-]` (stereo unspecified), the TGI in the test on LXFL 529 NSCLC is 27.5 µM; in the test on DMS 114 small cell lung it was 32.5 µM; with M19-MEL melanoma it was 30.9 µM; in the test on DLD-1 colon it was 29 µM; in the test on SNB-78 CNS, 66.7 µM; with HOP-18 NSCLC, 45.6 µM. This compound returned a TGI with KM20L2 colon of 31.7 µM.
For the compound `COC(=O)C1C(C)N1C` (stereo unspecified), the TGI with LXFL 529 NSCLC, with DMS 114 small cell lung, with XF 498 CNS, in the test with M19-MEL melanoma, in the test with DLD-1 colon and in the test with SNB-78 CNS was more than 100 µM throughout. The compound also gave a TGI in the test with RXF-631 renal of more than 100 µM.
With `CC(=O)N(C)c1ccc2c(ccc[n+]2[O-])c1[N+](=O)[O-]`, the TGI with LXFL 529 NSCLC, in the test with DMS 114 small cell lung, in the test with XF 498 CNS, with M19-MEL melanoma, with DLD-1 colon and in the test with SNB-78 CNS was more than 100 µM throughout. Moreover, the TGI in the test with HOP-18 NSCLC, in the test with RXF-631 renal and in the test on KM20L2 colon was more than 100 µM each time.
For `Nc1ccc2c(c1)C(=O)N(O)C2=O`, the TGI in the test with LXFL 529 NSCLC, in the test on DMS 114 small cell lung, with XF 498 CNS, in the test on M19-MEL melanoma, in the test on DLD-1 colon and in the test on SNB-78 CNS was more than 100 µM throughout. Further, in the test with KM20L2 colon, the TGI was more than 100 µM.
`C[C@]12CC[C@@H]3c4ccccc4CC[C@H]3[C@@H]1CC[C@@H]2O`: the TGI in the test on LXFL 529 NSCLC, with M19-MEL melanoma, in the test with DLD-1 colon, in the test with SNB-78 CNS and in the test with KM20L2 colon was more than 100 µM in each case.
